From patent US11584725B2, “Pyrazinoic acid conjugates and hybrid conjugates” (Augusta University Research Institute, Inc., priority 2018, dated 2023) come the findings set out here.

Converted amounts (≈) assume the structure as drawn. “And” between values parts separate entries of the source, which are not always exact repeats. Equal entries are not always repeated. A value given as a limit tells only on which side of the number the result lay.

In one assay the test system is Staphylococcus aureus. As to the kind of experiment: Antibacterial MIC, aerobic bacteria, standard technique. It counts as cell-based. The following applies: read-out: Minimum inhibitory concentration (MIC). An excerpt:
(§1) Antibacterial properties were investigated for the synthesized compounds against a variety of Gram-positive (Staphylococcus aureus, Enterococcus faecalis) and Gram-negative (Klebsiella pneumonia, Proteus vulgaris, Pseudomonas aeruginosa) bacteria utilizing the standard technique.
For the compound `O=C(NNC(=O)[C@H](Cc1c[nH]c2ccccc12)NC(=O)c1cnccn1)c1ccncc1` [drawing 41], the MIC was determined as 3.73 mM (≈ 1.6 mg/mL).

In another assay the test system is Enterococcus faecalis. The assay is described as above. It counts as cell-based. The following applies: read-out: Minimum inhibitory concentration (MIC).
Excerpt: as §1
As to `CCC(C)C(NC(=O)c1cnccn1)C(=O)O` (stereo not shown) [drawing 30], the MIC was 0.03 µg/mL.

For `CC(C)[C@H](NC(=O)c1cnccn1)C(=O)NNC(=O)c1ccncc1` [drawing 36], the MIC was 0.00035 mM.

For the compound `CCC(C)C(NC(=O)c1cnccn1)C(=O)NNC(=O)c1ccncc1` (stereo not shown) [drawing 37], the MIC is 0.03 µg/mL and 0.08 µM.

In another assay the test system is Proteus vulgaris. Described as above. The following applies: read-out: Minimum inhibitory concentration (MIC). It counts as cell-based.
Excerpt: as §1
Regarding `CCC(C)C(NC(=O)c1cnccn1)C(=O)O` (stereo not shown) [drawing 30], the MIC worked out at 0.06 µg/mL (≈ 0.253 µM).

Take `CCC(C)C(NC(=O)c1cnccn1)C(=O)NNC(=O)c1ccncc1` (stereo not shown) [drawing 37]: the MIC is 0.06 µg/mL (≈ 0.168 µM).

A further assay deals with Klebsiella pneumonia. Described as above. The following applies: Klebsiella pneumoniae, read-out: Minimum inhibitory concentration (MIC). The format is cell-based.
Excerpt: as §1
As for `CCC(C)C(NC(=O)c1cnccn1)C(=O)O` (stereo not shown) [drawing 30], the MIC worked out at 0.008 mg/mL (≈ 33.7 µM).

Turning to `CCC(C)C(NC(=O)c1cnccn1)C(=O)NNC(=O)c1ccncc1` (stereo not shown) [drawing 37], the MIC amounted to 0.008 mg/mL (≈ 22.4 µM).

A further assay concerns Mycobacterium marinum. As to the kind of experiment: Anti-mycobacterial MIC. It counts as cell-based. The following applies: read-out: Minimum inhibitory concentration (MIC), observed.
On to `NNC(=O)c1ccncc1` [INH, isoniazide, reference compound], for which the MIC was determined as 72.9 mM (≈ 10 mg/mL).

`O=C(NNC(=O)c1ccncc1)c1ccncc1` [Iso-INH]: the MIC came out at 82.6 mM (≈ 20 mg/mL).

`NC(=O)c1cnccn1` [PZA, Pyrazinamide, reference compound]: the MIC is 81.2 mM (≈ 10 mg/mL).

As for `O=C(NNC(=O)c1cnccn1)c1ccncc1` [PZA-INH], the MIC came to 41.1 mM (≈ 10 mg/mL).

As for `CCC(C)C(NC(=O)c1cnccn1)C(=O)NNC(=O)c1ccncc1` (stereo not shown) [PZA-Ile-INH], the MIC worked out at 56.1 mM (≈ 20 mg/mL).

Turning to `CC(C)C[C@H](NC(=O)c1cnccn1)C(=O)NNC(=O)c1ccncc1` [PZA-Leu-INH], the MIC was 56.1 mM (≈ 20 mg/mL).

For `CC(C)C[C@H](NC(=O)c1cnccn1)C(=O)O` [PZA-Leu-OH], the MIC was determined as 84.3 mM (≈ 20 mg/mL).

As to `CSCC[C@H](NC(=O)c1cnccn1)C(=O)NNC(=O)c1ccncc1` [PZA-Met-INH], the MIC came to 26.7 mM (≈ 10 mg/mL).

On to `O=C(NNC(=O)[C@H](Cc1ccccc1)NC(=O)c1cnccn1)c1ccncc1` [PZA-Phe-INH], for which the MIC amounted to 51.2 mM (≈ 20 mg/mL).

Regarding `O=C(NNC(=O)[C@H](Cc1c[nH]c2ccccc12)NC(=O)c1cnccn1)c1ccncc1` [PZA-Trp-INH], the MIC was 46.6 mM (≈ 20 mg/mL).

As to `CC(C)[C@H](NC(=O)c1cnccn1)C(=O)NNC(=O)c1ccncc1` [PZA-Val-INH], the MIC is 58.4 mM (≈ 20 mg/mL).

For another assay, the system named is Mycobacterium bovis. As to the kind of experiment: microbe, parasite or virus in culture. The note with it: Mycobacterium bovis, MIC vs INH. The format is cell-based.
`O=C(NNC(=O)c1ccncc1)c1ccncc1` [Iso-INH]: the “MIC lower than that of the standard reference (INH)” value was “about 1.8 folds”.

With `O=C(NNC(=O)c1cnccn1)c1ccncc1` [PZA-INH], the “MIC lower than that of the standard reference (INH)” value was “about 1.8 folds”.

The assay is the same for the next values; noted with them: Mycobacterium tuberculosis variant bovis, read-out: Minimum inhibitory concentration (MIC).
Regarding `CCC(C)C(NC(=O)c1cnccn1)C(=O)O` (stereo not shown) [drawing 48], the MIC is greater than 20 mg/mL.

Regarding `CCC(C)C(NC(=O)c1cnccn1)C(=O)NNC(=O)c1ccncc1` (stereo not shown) [drawing 55], the MIC was greater than 20 mg/mL.

The subject of a further assay is Mycobacterium fortuitum. As to the kind of experiment: Anti-mycobacterial MIC. The format is cell-based. The note with it: MIC vs INH.
For the compound `O=C(NNC(=O)C(Cc1ccccc1)NC(=O)c1cnccn1)c1ccncc1` (racemic) [PZA-DL-Phe-INH], the “Potency relative to the standard reference (INH)” value is “about 5.6 folds”.

Still in this assay, the particulars now being: Mycolicibacterium fortuitum, read-out: Minimum inhibitory concentration (MIC).
On to `CC(C)[C@H](NC(=O)c1cnccn1)C(=O)O`, for which the MIC is greater than 20 mg/mL.

In the case of `CSCC[C@H](NC(=O)c1cnccn1)C(=O)O`, the MIC is greater than 20 mg/mL.

Regarding `O=C(N[C@@H](Cc1ccccc1)C(=O)O)c1cnccn1`, the MIC is greater than 20 mg/mL.

Regarding `O=C(NC(Cc1ccccc1)C(=O)O)c1cnccn1` (stereo not shown), the MIC was greater than 20 mg/mL.

Take `O=C(N[C@@H](Cc1c[nH]c2ccccc12)C(=O)O)c1cnccn1`: the MIC is greater than 20 mg/mL.

In the case of `O=C(NNC(=O)C(Cc1ccccc1)NC(=O)c1cnccn1)c1ccncc1` (stereo not shown), the MIC came to 10 mg/mL.

Regarding `NC(=O)c1cnccn1` [drawing 44], the MIC came to 10 mg/mL.

For the compound `NNC(=O)c1ccncc1` [drawing 45], the MIC worked out at 20 mg/mL.

On to `CC(C)C[C@H](NC(=O)c1cnccn1)C(=O)O` [drawing 46], for which the MIC was 20 mg/mL.

For `CCC(C)C(NC(=O)c1cnccn1)C(=O)O` (stereo not shown) [drawing 48], the MIC is greater than 20 mg/mL.

As to `CC(C)C[C@H](NC(=O)c1cnccn1)C(=O)NNC(=O)c1ccncc1` [drawing 53], the MIC was 20 mg/mL.

With `CC(C)[C@H](NC(=O)c1cnccn1)C(=O)NNC(=O)c1ccncc1` [drawing 54], the MIC was 20 mg/mL.

`CCC(C)C(NC(=O)c1cnccn1)C(=O)NNC(=O)c1ccncc1` (stereo not shown) [drawing 55]: the MIC is 20 mg/mL.

Consider `CSCC[C@H](NC(=O)c1cnccn1)C(=O)NNC(=O)c1ccncc1` [drawing 56], for which the MIC was 20 mg/mL.

Consider `O=C(NNC(=O)[C@H](Cc1ccccc1)NC(=O)c1cnccn1)c1ccncc1` [drawing 57], for which the MIC came out at 20 mg/mL.

For the compound `O=C(NNC(=O)[C@H](Cc1c[nH]c2ccccc12)NC(=O)c1cnccn1)c1ccncc1` [drawing 59], the MIC stood at 20 mg/mL.

Regarding `O=C(NNC(=O)c1cnccn1)c1ccncc1` [drawing 60], the MIC was found to be 10 mg/mL.

For the compound `O=C(NNC(=O)c1ccncc1)c1ccncc1` [drawing 61], the MIC was 20 mg/mL.

Still in this assay, the particulars now being: Mycolicibacterium fortuitum, read-out: Minimum inhibitory concentration (MIC), observed.
Consider `O=C(NNC(=O)c1ccncc1)c1ccncc1` [Iso-INH], for which the MIC amounted to 82.6 mM.

For the compound `NC(=O)c1cnccn1` [PZA, Pyrazinamide, reference compound], the MIC was 81.2 mM.

For the compound `O=C(NNC(=O)c1cnccn1)c1ccncc1` [PZA-INH], the MIC turned out to be 41.1 mM.

In the case of `CCC(C)C(NC(=O)c1cnccn1)C(=O)NNC(=O)c1ccncc1` (stereo not shown) [PZA-Ile-INH], the MIC came to 56.1 mM.

Consider `CC(C)C[C@H](NC(=O)c1cnccn1)C(=O)NNC(=O)c1ccncc1` [PZA-Leu-INH], for which the MIC came out at 56.1 mM.

`CC(C)C[C@H](NC(=O)c1cnccn1)C(=O)O` [PZA-Leu-OH]: the MIC was found to be 84.3 mM.

With `CSCC[C@H](NC(=O)c1cnccn1)C(=O)NNC(=O)c1ccncc1` [PZA-Met-INH], the MIC came to 53.4 mM.

`O=C(NNC(=O)[C@H](Cc1ccccc1)NC(=O)c1cnccn1)c1ccncc1` [PZA-Phe-INH]: the MIC worked out at 51.2 mM.

As to `O=C(NNC(=O)[C@H](Cc1c[nH]c2ccccc12)NC(=O)c1cnccn1)c1ccncc1` [PZA-Trp-INH], the MIC stood at 46.6 mM.

On to `CC(C)[C@H](NC(=O)c1cnccn1)C(=O)NNC(=O)c1ccncc1` [PZA-Val-INH], for which the MIC amounted to 58.4 mM.
